According to article PMC12410356 (International Journal for Parasitology: Drugs and Drug …, 2025):
Several values for one entry are separate records, joined by “and”; a condition that tells them apart may be missing. Equal entries are not always repeated.

What was measured:
[1] = test system: E. multilocularis metacestode vesicles; test: Phosphoglucose isomerase (PGI) release assay (damage-marker release) on metacestode vesicles; type: cell-based, Echinococcus multilocularis; conditions: 10 μM; for PGI d5 (relative PGI release): 5 days; for PGI d12 (relative PGI release): 12 days
[2] = test system: E. multilocularis metacestode vesicles; test: Metacestode vesicle viability assay (ATP, CellTiter-Glo); type: cell-based, Echinococcus multilocularis; conditions: 10 μM, 12 days
Description: Viability was assessed after 12 days using the same metacestode vesicles as for the PGI release assay. Triton X-100 was added to each well to a final concentration of 0.1 %. Subsequently the metacestode vesicles were broken mechanically and 50 μL of the supernatant was mixed with 50 μL of CellTiter-Glo® buffer (Promega, Dübendorf, Switzerland). Measurements were performed on a HIDEX Sense microplate reader.

[3] = overview screen, singlets, relative to 0.1 % Triton X-100, DMSO subtracted
[4] = overview screen, singlets, relative to DMSO control
[5] = confirmation screen, triplicates, mean

| Compound | PGI d5 (relative PGI release) [1, 3] | PGI d12 (relative PGI release) [1, 3] [%] | Viability d12 (relative viability) [2, 4] [%] | PGI d5 (relative PGI release) [1, 5] [%] | PGI d12 (relative PGI release) [1, 5] [%] | Viability d12 (relative viability) [2, 5] [%] |
| --- | --- | --- | --- | --- | --- | --- |
| COc1ccc(COc2cc3oc(=O)c4cc(C(C)O)ccc4c3cc2OC)cc1 (stereo not drawn) [MMV1580799] | -0.002121% | -19.4753 | 164.074 |  |  |  |
| N#Cc1cc([N+](=O)[O-])ccc1Oc1ccccc1Cl [MMV1580800] | 1.0953% | -9.284 | 90.6917 |  |  |  |
| Cc1nc2ccc(Cl)cc2c(-c2ccccc2)c1CC(=O)O [MMV1580801] | 6.482% | 83.9153 | 42.503 |  |  |  |
| Nc1nc(NC2Cc3ccc(F)cc3C2)nc(N2CCCCC2)n1 (stereo not drawn) [MMV1580839] | -3.67% | -6.152 | 110.365 |  |  |  |
| O=C(Nc1ccc(Cl)c(C(F)(F)F)c1)C(CCCl)C(=O)Nc1ccc(Cl)c(C(F)(F)F)c1 [MMV1580840] | 14.7528% | 31.1069 | 11.8566 | -0.17 | 0.36 | 81.80 |
| O=S(=O)(NCB(O)O)c1cc2c(Cl)ccc(Cl)c2s1 [MMV1580841] | -1.0927% | -26.0917 | 81.7436 |  |  |  |
| Clc1cc2nc(C3CCNCC3)n(Cc3ccc(CNCCc4c[nH]cn4)cc3)c2cc1Cl [MMV1580842] | -1.296% | -12.8721 | 102.952 |  |  |  |
| C[Si]1(C)CCN(Cc2cc(-c3ccc(Cl)cc3)n(-c3ccc(Cl)cc3)n2)CC1 [MMV1580843] | -0.6444% | -1.571 | 93.6293 |  |  |  |
| CCc1nc(N)nc(N)c1C#CC(C)c1cc(OC)cc(-c2ccncc2)c1 (stereo not drawn) [MMV1580844] | -2.169% | 33.6502 | 16.6994 | -0.46 | 0.83 | 84.60 |
| CC(=O)N[C@H](C)C(=O)N[C@H](Cc1ccccc1)C(=O)O [MMV1580845] | 0.2541% | -2.372 | 90.1704 |  |  |  |
| COc1ccc(SC(=O)N[C@H](CCC(=O)O)C(=O)O)cc1 [MMV1580846] | -0.9041% | -2.09 | 126.077 |  |  |  |
| CCCCCc1ccc(C(=O)NCCn2cc(CCCCCc3c[nH]c(N)n3)nn2)cc1.Cl [MMV1580847] | 2.795% | 5.023 | 106.136 |  |  |  |
| NC(=O)c1cnc2ccc(S(=O)(=O)c3ccccc3)cc2c1Nc1ccc(O)cc1 [MMV1580848] | -0.9531% | 29.1599 | 51.7682 |  |  |  |
| C=CCc1cc(Cc2cnc(N)nc2N)cc(OC)c1O [MMV1580849] | 24.5% and 24.5063% | -6.332 | 47.2094 |  |  |  |
| Fc1ccc(-n2cc(Cn3c(-c4cccc(F)c4)nc4ccccc43)nn2)cc1 [MMV1580850] | -2.0582% | -24.0097 | 34.9853 |  |  |  |
| CCCCCOc1ccc(/C=C2\Oc3c(ccc(O)c3O)C2=O)c(O)c1 [MMV1580851] | 1.174% | -13.3457 | 137.102 |  |  |  |
| CCCCc1ccc(-c2cc(C(=O)O)cc(-c3ccc(Cl)cc3)n2)cc1 [MMV1580852] | -0.3014% | -1.795 | 95.9921 |  |  |  |
| O=C(Nc1cccc(C2=NCCN2)c1)c1ccc(-c2ccc(C(=O)Nc3cccc(C4=NCCN4)c3)cc2)cc1 [MMV1580853] | 0.237% | 89.997 | 3.841 | -0.08 | 7.37 | 134.53 |
| CCc1cc(O)c(Oc2cccnc2N)cc1F [MMV1580854] | -1.596% | -13.7258 | 45.6729 |  |  |  |
| O=C(O)c1sccc1S(=O)(=O)n1ccc2cc(Br)ccc21 [MMV1580855] | 0.195% | 35.1913 | 69.7674 |  |  |  |
| Cc1ccccc1NC(=O)Nc1cccc([N+](=O)[O-])c1 [MMV1581029] | 1.329% | -16.6439 | 89.4166 |  |  |  |
| CN(C(=O)C1(c2ccc(Cl)cc2)CCC1)c1ccccc1 [MMV1581030] | 0.6829% | -0.7665 | 114.111 |  |  |  |

| Compound | PGI d5 (relative PGI release) [1, 3] | PGI d12 (relative PGI release) [1, 3] [%] | Viability d12 (relative viability) [2, 4] [%] | PGI d5 (relative PGI release) [1, 5] [%] | PGI d12 (relative PGI release) [1, 5] [%] | Viability d12 (relative viability) [2, 5] [%] |
| --- | --- | --- | --- | --- | --- | --- |
| FC(F)(F)Oc1ccc(Nc2ccc3cccc(Cl)c3n2)cc1 [MMV1581032] | -0.01272% | 18.8065 | 85.6723 |  |  |  |
| N[C@H](CCC(=O)N[C@@H](Cc1c[nH]c2ccccc12)C(=O)O)C(=O)O [MMV1581033] | 0.0006202% | -0.6563 | 121.646 |  |  |  |
| Cc1c(F)cccc1NC(=O)Nc1ccc(Cl)c(S(=O)(=O)[C@H]2CCCNC2)c1O [MMV1581034] | 1.533% | -0.4746 | 88.9358 |  |  |  |
| NC(=O)c1ccc(I)c([N+](=O)[O-])c1 [MMV1581035] | 1.539% | -0.2873 | 321.911 |  |  |  |
| COc1ccc(C[C@@H](C)[C@@H](C)Cc2ccc(OC)c(OC)c2)cc1OC [MMV1581036] | 0.565% | 2.335 | 132.486 |  |  |  |
| O=C1[C@H](CC[C@H](O)c2ccc(F)cc2)[C@@H](c2ccc(O)cc2)N1c1ccc(F)cc1 [MMV1581377] | -0.5323% | 22.6699 | 84.8656 |  |  |  |
| Nc1ccc2oc(=O)ccc2c1I [MMV1581378] | 0.09331% | -19.2105 | 90.9948 |  |  |  |
| O=c1cc(Nc2ccc3ccccc3c2)[nH]c(=O)[nH]1 [MMV1581546] | -1.553% | -12.1764 | 58.2809 |  |  |  |
| CC(C)(C)OC(=O)NCc1ccc(C(=O)N[C@H]2CCOC2=O)cc1 [MMV1581547] | -1.162% | 45.6301 | 30.2259 |  |  |  |
| CC(C)(C)c1cccc(-c2nc3cc(C(=N)N)ccc3[nH]2)c1O [MMV1581548] | -1.312% | -24.7037 | 76.2328 |  |  |  |
| CCc1nc(N)nc(N)c1C#CCc1ccccc1 [MMV1581549] | -0.3014% | -5.576 | 82.8379 |  |  |  |
| OC1O[C@H](CSc2ccc(F)cc2)[C@@H](O)[C@H]1O (stereo partly drawn) [MMV1581550] | -2.303% | -13.5328 | 95.5206 |  |  |  |
| c1ccc(-c2nnc3c4ccccc4c(N4CCNCC4)nn23)cc1 [MMV1581551] | -2.787% | -25.7664 | 63.6248 |  |  |  |
| O=C(Nc1ccccc1)N(Cc1cc(Br)ccc1O)c1ccc(F)cc1 [MMV1581552] | -0.185% | -25.2603 | 81.6601 |  |  |  |
| COc1ccc2c(c1)cc(CNC(=O)c1cc3ccccc3o1)n2CC(=O)O [MMV1581553] | -2.902% | -25.8097 | 73.1434 |  |  |  |
| Nc1cc(N)c2nc(-c3ccccc3)c(Nc3ccc(F)cc3)nc2c1 [MMV1581554] | 4.452% | -9.136 | 104.705 |  |  |  |
| Nc1cccc(-c2nc(N)nc(NC3Cc4ccccc4C3)n2)c1 [MMV1581555] | 2.438% | -5.225 | 66.1297 |  |  |  |
| NC(=O)c1[nH]c2ccc(S(N)(=O)=O)cc2c1-c1ccccc1 [MMV1581556] | 1.2% | 0.8963 | 154.578 |  |  |  |
| O=C(N[C@H](CCS)C(=O)N[C@H](Cc1ccccc1)C(=O)O)c1cc2ccccc2[nH]1 [MMV1581557] | -0.9852% | -10.8141 | 26.3851 |  |  |  |
| Cc1cccc(C)c1C(=O)Nc1nc(-c2ccccn2)cc2ccccc12 [MMV1581558] | 1.519% | 3.408 | 99.5465 |  |  |  |
| CC(C)Cn1c(=O)n(C)c(=O)c2c(-c3cncn3C)n(Cc3cccc4ccccc34)nc21 [MMV1581559] | -0.3605% | 37.1265 | 31.7083 |  |  |  |
